Experiment [1] deals with NRel NTHI. To be noted: released from dual-species biofilm by anti-rsPilA; cited from earlier work.
The subject of experiment [2] is NTHI (biofilm-resident, planktonic, anti-rsPilA NRel, anti-IHF NRel). The experiment is described as follows: Antibiotic sensitivity of biofilm-resident, planktonic or NRel NTHI (2 h antibiotic exposure, CFU plating). Type of experiment: cell-based, Nontypeable Haemophilus influenzae. Particulars: for sensitivity to killing of anti-IHF NRel compared to planktonic NTHI / sensitivity to killing of anti-rsPilA NRel compared to planktonic NTHI: 2 h antibiotic at concentration killing ~20-25% of planktonic NTHI; for sensitivity to killing of time-matched anti-rsPilA NRel compared to planktonic NTHI: TMP-SMX 0.09 and 0.45 μg per ml, AMC 0.3 and 0.15 μg per ml. The protocol: Biofilms were established for 16 hr at 37° C. as described above. For biofilm-resident NTHI: biofilms were washed twice with DPBS and incubated in sBHI supplemented with the indicated antibiotics for at 37° C. 2 h. For planktonic NTHI: NTHI were incubated in sBHI for 3 hr as described above to reach log phase of growth, then diluted to the approximate concentration of either the anti-IHF (2×10^8 CFU/ml) or anti-rsPilA NRels (3×10^8 CFU/ml) to permit comparison between anti-IHF or anti-rsPilA NRels, (see FIG. 1). Planktonic NTHI were incubated with the indicated antibiotics at 37° C. for 2 hr. For NRel NTHI: anti-IHF or anti-rsPilA NRel, generated and collected as described above were incubated at 37° C. for 2 hr with the indicated antibiotics. CFU NTHI were determined by serial dilution and plating. Amoxicillin (Sigma-Aldrich, St. Louis, MO) and clavulanate (U.S. Pharmacopeia, Rockville, MD) were used at a ratio of 2:1. Trimethoprim (Sigma-Aldrich) and sulfamethoxazole (Santa Cruz Biotech, Dallas, TX) were used at a ratio of 1:5. […] All experiments were performed at least three times on separate days with two technical replicates for each treatment and control group.
To avoid excessive manipulation or dilution of NRel NTHI, and to permit direct comparison of equal numbers of planktonic and NRel, the planktonic cell density was adjusted to the same CFU per ml as the NRel population in each experiment as follows: NTHI were incubated statically to mid log phase growth then diluted to either 3×10^8 CFU/ml for comparison with anti-rsPilA NRel collected at 6 h, or to 2×10^8 CFU/ml for comparison with anti-IHF NRel collected at 15 min (see FIG. 1). Applicant then determined the concentrations of amoxicillin (Sigma-Aldrich, St. Louis, MO) and clavulanate (U.S. Pharmacopeia, Rockville, MD), or of trimethoprim (Sigma-Aldrich) and sulfamethoxazole (Santa Cruz Biotech, Dallas, TX) that killed approximately 25% of planktonic NTHI at each density. The same antibiotic concentrations were used for the anti-IHF or anti-rsPilA NRel, the density-matched (same CFU/ml) planktonic NTHI, and the adherent biofilm for each relevant experiment. […] Applicant then assessed killing of anti-IHF or anti-rsPilA NRel by concentrations of amoxicillin plus clavulanic acid (“augmentin”, AMC) or trimethoprim plus sulfamethoxazole (TMP-SMX) that killed 25% of the planktonic NTHI at the same density.
Anti-rsPilA or anti-IHF NRel were collected and sonicated as described above. After sonication for 2 min in a water bath sonicator to break up any NTHI aggregates, NRel or planktonic NTHI were incubated with the indicated antibiotics at 37° C. for 2 h, then serially diluted and plated on chocolate agar to quantify viable NTHI. To assay biofilm-resident NTHI, biofilms were established for 16 h at 37° C. as described above, washed twice with DPBS and incubated in sBHI supplemented with the indicated antibiotics at 37° C. After 2 h, biofilm-resident NTHI were collected by forceful pipetting, sonicated for 2 min and enumerated as described above. All experiments were performed at least three times on separate days with two or three technical replicates for each treatment and control group.

Experiment [3] has as its system NRel versus Non-Associated NTHI. From the text:
Applicant tested for this phenotype for either Amox/Clav or Trimethoprim/Sulfamethoxazole to determine when this sensitivity first appears and how long this NRel phenotype lasts (i.e. what is the window of opportunity in which to treat a patient with a biofilm disease?). Here, NRel are compared not to planktonic bacteria (due to their artificiality) but rather to “Non-Associated” bacteria which are those found in the supernatant above the biofilm but not associated with biofilm residence as this population represents those bacteria that naturally come off the biofilm or were never a part of the biofilm which is a normal aspect of the preferred bacterial lifestyle in nature. […] Box Legend: NRelAC—relative killing by Amox/Clav; NRel TS—relative killing by Trimethoprim/Sulfamethoxazole; open symbols are the same but for the non-associated populations of bacteria as now described in this legend. Data was generated with a murine anti-tip chimer antibody.
Box Legend: NRelAC—relative killing by Amox/Clav; NRel TS—relative killing by Trimethoprim/Sulfamethoxazole; open symbols are the same but for the non-associated populations of bacteria as now described in this legend. Data was generated with a murine anti-tip chimer antibody.

Experiment [4] deals with NRel M. catarrhalis. To be noted: released from dual-species biofilm by anti-rsPilA; cited from earlier work.
The mark [5] stands for this setting: after exposure to antibodies against rsPilA.

“Also recorded” adds a separate entry of the source. Bounds are passed on as bounds.

trimethoprim and sulfamethoxazole [T/S]: the “susceptibility of NRel NTHI compared to those from growth on agar” value in experiment [1] is listed as “more susceptible”. The “sensitivity of biofilm-resident NTHI to killing” value in experiment [2] (16 h biofilm, 2 h antibiotic) was “minimal sensitivity”. For the same compound, the “sensitivity to killing of anti-IHF NRel compared to biofilm-resident NTHI” value in experiment [2] (NRel after 15 min anti-IHF, 2 h antibiotic) was “significantly more sensitive”. Also, the “sensitivity to killing of anti-IHF NRel compared to planktonic NTHI” value is “only equally as sensitive” in experiment [2] (NRel after 15 min anti-IHF) and “only equally as sensitive” in experiment [2] (NRel after 15 min anti-IHF, listed as TMP-SMX). In addition, the “sensitivity to killing of anti-rsPilA NRel compared to biofilm-resident NTHI” value in experiment [2] (NRel after 6 h anti-rsPilA, 2 h antibiotic) is listed as “significantly more sensitive”. In addition, the “sensitivity to killing of anti-rsPilA NRel compared to planktonic NTHI” value was “significantly more sensitive; also recorded: significantly greater” in experiment [2] (NRel after 6 h anti-rsPilA) and “significantly greater” in experiment [2] (NRel after 6 h anti-rsPilA, listed as TMP-SMX). For the same compound, the “sensitivity to killing of time-matched anti-rsPilA NRel compared to planktonic NTHI” value in experiment [2] (NRel collected after 2 h, listed as TMP-SMX) is recorded as “significantly more susceptible”; in experiment [2] (NRel collected after 2 h, listed as TMP/SMX), “significantly more sensitive”. Also, the “sensitivity to killing of time-matched anti-IHF NRel compared to planktonic NTHI” value in experiment [2] (NRel collected after 2 h, TMP-SMX 0.94 and 4.7 μg/ml, AMC 2.5 and 1.25 μg/ml) was “only equally as sensitive; also recorded: equally susceptible”. Further, the “sensitivity of anti-DNABII NRel to killing compared to Non-Associated bacteria” value in experiment [3] (NRel induced with murine anti-tip chimer antibody) is “as but not more sensitive”. The “sensitivity of anti-rsPilA NRel to being killed compared to Non-Associated bacteria” value in experiment [3] (NTHI released by antibody against rsPilA) is on record as “significantly greater sensitivity”. Further, the “time at which greater sensitivity of anti-rsPilA NRel appears” value in experiment [3] (setting [5]) is reported as “approximately one”. Further, the “time at which the sensitive phenotype of anti-rsPilA NRel remains” value in experiment [3] (setting [5]) is at least 6 h.

In the case of `CC[C@H]1OC(=O)[C@H](C)[C@@H](O[C@H]2C[C@@](C)(OC)[C@@H](O)[C@H](C)O2)[C@H](C)[C@@H](O[C@@H]2O[C@H](C)C[C@H](N(C)C)[C@H]2O)[C@](C)(OC)C[C@@H](C)C(=O)[C@H](C)[C@@H](O)[C@]1(C)O` [clarithromycin], in experiment [4], the “susceptibility of NRel M. catarrhalis compared to those from growth on agar” value is “more susceptible”.
